Experimental data taken from US7935530B2, “Polyamides with tail structures capable of binding DNA” (California Institute of Technology, priority 2006, dated 2011).
“Also recorded” adds a separate entry of the source.

Tests used:
HeLa cells = assay: HeLa cell growth, cells counted with a hemacytometer; assay type: cell-based, human; settings: 1 μM, counted at 24 hour intervals
Protocol: FIG. 10: HeLa cell growth in the presence of polyamides 11, 12, 23, and 24 at 1 μM as a function of time. Cells were counted at 24 hour intervals using a hemacytometer.

LDHA = assay: HIF-1 induced gene expression, U251 cells (Table 3), LDHA; assay type: cell-based, human; settings: HREs ggcgGACGTGcggg, ctcaCACGTGggtt, E 100 nM
Protocol: (§1) U251 cells were plated in 24-well plates at a density of 20−30×10^3 cells per well (40−60×10^3 cells/ml) in RPMI (ATCC) supplemented with 5% FBS (Irvine Scientific). After 24 hours, polyamides were added to the adhered cells in cell media solutions at the appropriate concentration and incubated with the cells for 48 hours. […] When appropriate, echinomycin was added two hours prior to DFO stimulation. Isolation of RNA and subsequent cDNA synthesis were as previously described (19). When appropriate, HIF-1α siRNA (HIF-1α validated stealth duplex, Invitrogen) or mismatch control siRNA with similar GC content (Invitrogen) was transfected 48 hours prior to RNA isolation. Transfection of siRNA was achieved using Lipofectamine 2000 (Invitrogen) according to manufacturer's protocols. Quantitative real-time RT-PCR was performed using SYBR Green PCR Master Mix (Applied Biosystems) on an ABI 7300 instrument. Target gene mRNA was measured relative to β-glucuronidase as an endogenous control. Primer employed were: VEGF, L 5′[…]-3′ (SEQ ID NO:22), R 5′-GGGTACTCC TGGAAGATGTCC-3′ (SEQ ID NO:23); β-glucuronidase, L 5′-[…]-3′ (SEQ ID NO:24), R 5′-[…]-3′ (SEQ ID NO:25); FLT1, L 5′-[…]-3′ (SEQ ID NO:26), R 5′-[…]-3′ (SEQ ID NO:27).

BNIP3 = assay: HIF-1 induced gene expression, U251 cells (Table 3), BNIP3; assay type: cell-based, human; settings: HRE gccgCACGTGccac, E 100 nM
Protocol: as §1

11 HIF-1 induced genes = assay: Quantitative real-time RT-PCR confirmation on the set of 11 HIF-1 induced genes, U251 cells; assay type: cell-based, human; settings: E 100 nM, polyamides 1 μM
Source text: Quantitative real-time RT-PCR was used to confirm the effects of polyamides 11.1, 11.3, echinomycin, and siRNA treatments on these 11 genes. […] Chromatin immunoprecipitation was used to measure HIF-1 occupancy at the HREs of VEGF and carbonic anhydrase IX (CA9), which were both affected by polyamide 11.1, and PGK1, which was unaffected (FIG. 17). HIF-1α occupancy at the VEGF HRE was decreased by HIF-1α siRNA, echinomycin, and polyamide 11.1, but less so by treatment with HRE-mismatch polyamide 11.3.
as §1

HIF-1α mRNA = HIF-1α mRNA by quantitative real-time RT-PCR, U251 cells; assay type: cell-based, human; settings: induced conditions, polyamides 1 μM, echinomycin 100 nM
Protocol: as §1

FLT1 mRNA = assay: DFO-induced FLT1 mRNA by quantitative real-time RT-PCR, U251 cells; assay type: cell-based, human; settings: for HIF-1 induced genes affected: FLT1: HRE gaacAACGTGgaat, E 100 nM, 11.1 and 11.3 1 μM, U251; for Effect on DFO-induced FLT1 mRNA (in words): U251 cells, polyamides 1 μM, echinomycin 100 nM
Protocol: as §1

U251 cells = assay: Microarray analysis of gene expression (Affymetrix Human Genome U133 Plus 2.0), DFO-induced U251 cells; assay type: cell-based; settings: for Number of transcripts affected (p ≦ 0.01): down-regulated (fold change ≦ −2.0) / Number of transcripts affected (p ≦ 0.01): down-regulated (fold change ≦ −4.0) / Number of transcripts affected (p ≦ 0.01): up-regulatd (fold change ≧ 4.0) / Number of transcripts affected (p ≦ 0.01): up-regulated (fold change ≧ 2.0): DFO +; for Number of transcripts whose expression is affected by more than 2-fold (p≦0.01): polyamide 1 μM, echinomycin 100 nM, normalized to DFO-treated controls
Protocol: One potential limitation to the use of hairpin-polyamides for gene regulation is binding site size and specificity for match versus mismatch sites, which may result in prohibitively large numbers of affected genes. To examine this, the global effects of polyamide treatment on hypoxia-induced gene expression were measured using Affymetrix Human Genome U133 Plus 2.0 Arrays containing oligonucleotide sequences representing more than 50,000 transcripts. To establish a benchmark for comparison, the effects of HIF-1α siRNA and echinomycin were also measured. Experiments were conducted in triplicate, and gene expression levels normalized to DFO-treated controls. Cells not treated with DFO were normalized to DFO-treated controls.
U251 cells were plated in 12-well plates at a density of 40-60×10^3 cells per well. Media, time course, DFO, polyamide, echinomycin, and siRNA treatments were as described above. RNA was isolated as previously described. Further sample preparation for microarray experiments was carried out at the Millard and Muriel Jacobs Gene Expression Facility at Caltech. Labeled mRNA was hybridized to Affymetrix Human 133 arrays according to established protocols. Gene expression was analyzed using Resolver (Rosetta Biosoftware, Seattle).

[1] = system: 5′-ATACGT-3′ sequence within the HRE of the VEGF promoter; assay: Quantitative DNase I footprint titration on pGL2-VEGF-Luc PCR product, VEGF HRE; assay type: binding; settings: for Ka at the VEGF HRE: Example 2, pGL2-VEGF-Luc
Protocol: Quantitative DNase I footprint titration experiments were used to determine polyamide-binding affinities (Ka) to the 5′-ATACGT-3′ sequence within the HRE of the VEGF promoter. These experiments were performed using the 5′-^32P-labeled 197 bp PCR amplification product of the plasmid pGL2-VEGF-Luc isolated by non-denaturing gel electrophoresis (16, 21). Quantitative DNase I footprint titration experiments were conducted as reported previously (21).
Quantitative DNase I footprint titration experiments were used to measure the binding affinities of polyamides 11.1, 11.2, 11.3, and echinomycin on 5′ ^32P-labeled fragments of pGL2-VEGF-Luc and pCSJ-FLT1 containing promoter sequences containing the HREs of VEGF and FLT1, respectively. Quantitative DNase I footprint titration experiments were conducted as reported previously (56).

[2] = system: HIF-1 occupancy at the carbonic anhydrase IX (CA9) HRE; assay: Chromatin immunoprecipitation of HIF-1α, U251 cells, CA9 HRE; assay type: cell-based, human; settings: DFO-induced, polyamides 1 μM, echinomycin 100 nM
Protocol: U251 cells were plated in 15 cm diameter plates and left to attach overnight. Media, time course, DFO, polyamide, echinomycin, and siRNA treatments were as described above. After the 16 hour DFO treatment, cells were treated with 1% formaldehyde for 10 minutes. Chromatin was isolated and sheared. HIF-1α antibodies (Novus Biologicals) were used to immunoprecipitate HIF-1-bound DNA fragments. After crosslink reversal, PCRs using primers targeted to the regions of interest were used to assess enrichment of bound fragments as compared to mock-precipitated (no antibody) controls. PCRs were monitored either using SYBR Green PCR Master Mix (Applied Biosystems) on an ABI 7300 instrument, or directly visualized using gel electrophoresis. The following primers were used: VEGF, L 5′-CCTTTGGGTTTTGCCAGA-3′ (SEQ ID NO:28), R 5′-CCAAGTTTGTGGAGCTGA-3′ (SEQ ID NO:29); CA9, L 5′-AAAAGGGCGCTCTGTGAGT-3′ (SEQ ID NO:30), R 5′-GCTGACTGTGGGGTGTCC-3′ (SEQ ID NO:31); PGK1, L 5′-CCCCTAAGTCGGGAAGGTT-3′ (SEQ ID NO:32), R 5′-[…]-3′ (SEQ ID NO:33).

SMILES	HeLa cell growth (HeLa cells)	HIF-1 induced genes affected: LDHA (LDHA; 11.1 and 11.3 1 μM)	HIF-1 induced genes affected: BNIP3 (BNIP3; 11.1 and 11.3 1 μM)	Genes of the set of 11 HIF-1 induced genes affected (quantitative real-time RT-PCR) (11 HIF-1 induced genes)	Effect on HIF-1α mRNA (in words) (HIF-1α mRNA)	HIF-1 induced genes affected: FLT1 (FLT1 mRNA)	Number of transcripts affected (p ≦ 0.01): down-regulated (fold change ≦ −2.0) (U251 cells)	Number of transcripts affected (p ≦ 0.01): down-regulated (fold change ≦ −4.0) (U251 cells)	Number of transcripts affected (p ≦ 0.01): up-regulatd (fold change ≧ 4.0) (U251 cells)	Number of transcripts affected (p ≦ 0.01): up-regulated (fold change ≧ 2.0) (U251 cells)	Number of the 31 previously identified direct HIF-1 target transcripts (induced at least 1.5-fold by DFO) down-regulated / inhibited (U251 cells; DFO-induced U251)	Number of the 297 transcripts induced by DFO at least 4-fold that are inhibited by ≧2-fold (p≦0.01) (U251 cells; DFO-induced U251)	Number of transcripts whose expression is affected by more than 2-fold (p≦0.01) (U251 cells; DFO-induced U251)	HIF-1 occupancy at the carbonic anhydrase IX locus (chromatin immunoprecipitation) [2]	Ka at the VEGF HRE [1]	further results
CN(CCCNC(=O)c1cccc(C(=O)O)c1)CCCNC(=O)c1cc(NC(=O)c2cc(NC(=O)c3nc(NC(=O)c4cc(NC(=O)[C@H](N)CCNC(=O)c5nc(NC(=O)c6cc(NC(=O)c7cc(NC(=O)c8sccc8Cl)cn7C)cn6C)cn5C)cn4C)cn3C)cn2C)cn1C [Polyamide 11]	not inhibited	1.3	1.3	4	minimally affected	-2.0	1,575	336	57	709	14	69	2,284	decreased	–	Effect on DFO-induced FLT1 mRNA (in words) (FLT1 mRNA; listed as 11.1): inhibited FLT1 expression; also recorded: decrease FLT1 mRNA levels; Share of the 297 transcripts induced by DFO that were inhibited (U251 cells; DFO-induced U251): Approximately 23%; Affected transcripts (2-fold, p≦0.01) after eliminating all transcripts affected by DFO alone (1.5-fold, p≦0.01) (U251 cells; U251 microarray): 1,626; Share of interrogated / assayed transcripts affected (U251 cells; U251 microarray): less than 5%; Binding affinities (M-1), 5′-TACGTG-3′ (equilibrium association constants) ([1]; mean of three DNase I footprint titration experiments, standard deviations in parentheses, 197 bp PCR product of pGL2-VEGF-Luc): 2.6 (±0.4) × 10^10 M-1
CN(CCCNC(=O)c1cccc(C(=O)O)c1)CCCNC(=O)c1cc(NC(=O)c2cc(NC(=O)c3cc(NC(=O)c4nc(NC(=O)[C@H](N)CCNC(=O)c5cc(NC(=O)c6cc(NC(=O)c7nc(NC(=O)c8nccn8C)cn7C)cn6C)cn5C)cn4C)cn3C)cn2C)cn1C [Polyamide 23]	not inhibited	1.1	1.0	little effect on the expression of all the others	–	-1.1	–	–	–	–	–	–	–	unaffected	8.0 (±1.0)×10^8 M^−1	Effect on DFO-induced FLT1 mRNA (in words) (FLT1 mRNA; listed as 11.3): minimal effect; also recorded: minimal or no effect
CS[C@H]1SC[C@H]2C(=O)N(C)[C@@H](C(C)C)C(=O)OC[C@@H](NC(=O)c3cnc4ccccc4n3)C(=O)N[C@@H](C)C(=O)N(C)[C@@H]1C(=O)N(C)[C@@H](C(C)C)C(=O)OC[C@@H](NC(=O)c1cnc3ccccc3n1)C(=O)N[C@@H](C)C(=O)N2C [echinomycin, reference compound]	–	–	–	reduced expression of all genes in this set	minimally affected	-4.7	7,426	4,133	413	3,480	31	263	10,906	decreased	8.4 (±2.1)×10^6 M^−1	HIF-1 induced genes affected: LDHA (LDHA): −4.4; HIF-1 induced genes affected: BNIP3 (BNIP3): −6.0; Effect on DFO-induced FLT1 mRNA (in words) (FLT1 mRNA): decrease FLT1 mRNA levels; Effect on DFO-induced FLT1 mRNA (in words) (FLT1 mRNA; listed as Echinomycin): reduced FLT1 expression to below that of the non-induced control
